# Laboratory results as given in patent US8952024B2, “Herbicidal pyrimidone derivatives” (E I du Pont de Nemours and Company, priority 2009, dated 2015).
# What was measured:
# Type in all cases: in vivo
# [1] = test system: lambsquarters (Chenopodium album); assay: Test B pre-/postemergence plant response
# Procedure, shortened: (§1)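 Compound in solvent + surfactant applied pre-em (loam/sand) or post-em (plants 2–18 cm, peat medium); greenhouse hold 13–15 days; visual 0–100 control score.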
# [2] = test system: yellow nutsedge (Cyperus esculentus); assay: Test B pre-/postemergence plant response
# Procedure, shortened: as §1
# [3] = test system: cocklebur (Xanthium strumarium); assay: Test B pre-/postemergence plant response
# Procedure, shortened: as §1
# [4] = test system: large crabgrass (Digitaria sanguinalis); assay: Test B pre-/postemergence plant response
# Procedure, shortened: as §1
# [5] = test system: green foxtail (Setaria viridis); assay: Test B pre-/postemergence plant response
# Procedure, shortened: as §1
# [6] = test system: wheat (Triticum aestivum); assay: Test B pre-/postemergence plant response
# Procedure, shortened: as §1
# [7] = test system: bermudagrass (Cynodon dactylon); assay: Test B pre-/postemergence plant response
# Procedure, shortened: as §1
# [8] = test system: morningglory (Ipomoea coccinea); assay: Test B pre-/postemergence plant response
# Procedure, shortened: as §1
# wild oat (Avena fatua) = assay: Test B pre-/postemergence plant response
# Procedure, shortened: as §1
# [9] = test system: goosegrass (Eleusine indica); assay: Test B pre-/postemergence plant response
# Procedure, shortened: as §1
# [10] = test system: umbrella sedge (Cyperus difformis); assay: Test B flooded paddy test; settings: for Plant response rating, Flood, Sedge, Umbrella: 250 g ai/ha, flooded paddy test, visual rating on 0 to 100 scale (0 no effect, 100 complete control) after 13 to 15 days; for Plant response rating, Sedge, Umbrella: Flood (flooded paddy test), 13 to 15 days
# Procedure, shortened: (§2)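 Ratings are visual, 0–100 (100 = complete control), taken versus untreated controls 13 to 15 days after treatment in the greenhouse. Compound went straight into paddy water held 3 cm above soil, applied to 2-leaf-stage plants of four species.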
# [11] = test system: barnyardgrass (Echinochloa crus-galli); assay: Test B flooded paddy test; settings: for Plant response rating, Flood, Barnyardgrass: 250 g ai/ha, flooded paddy test, visual rating on 0 to 100 scale (0 no effect, 100 complete control) after 13 to 15 days; for Plant response rating, Barnyardgrass: Flood (flooded paddy test), 13 to 15 days
# Procedure, shortened: as §2
# [12] = 31 g ai/ha, postemergence, scale 0 to 100, 0 is no effect, 100 is complete control
# [13] = 62 g ai/ha, postemergence, 0 is no effect, 100 is complete control, 13 to 15 days
# [14] = Postemergence, 125 g ai/ha, visual rating after 13 to 15 days, scale 0 (no effect) to 100 (complete control)
# [15] = Postemergence, 250 g ai/ha, scale 0 to 100 (0 no effect, 100 complete control)
# [16] = 62 g ai/ha, scale of 0 to 100 where 0 is no effect and 100 is complete control
# [17] = 125 g ai/ha, scale 0 to 100, 0 is no effect, 100 is complete control
# [18] = Flood, 31 g ai/ha, scale 0 to 100 (0 no effect, 100 complete control)
# [19] = 250 g ai/ha, Preemergence, 0 to 100 scale
# [20] = Postemergence, 62 g ai/ha, scale 0 (no effect) to 100 (complete control), 13 to 15 days
# [21] = Postemergence, 250 g ai/ha, scale 0 to 100
# [22] = Preemergence, 31 g ai/ha, scale 0 to 100 (0 no effect, 100 complete control)
# [23] = Preemergence, 62 g ai/ha, scale 0 to 100 (0 no effect, 100 complete control)
# [24] = Preemergence, 125 g ai/ha, 0 to 100 scale
# [25] = Postemergence, 31 g ai/ha, scale 0 to 100 (0 no effect, 100 complete control)
# [26] = 62 g ai/ha, scale 0 to 100, 0 is no effect, 100 is complete control
compound,measurement,setting,value
Cc1ccccc1-c1ncc(C(=O)C2=C(O)CCCC2=O)c(=O)n1-c1ccccc1 [Compound 82],"Plant response rating, Lambsquarters",[1]; [12],80
same,Lambsquarters plant response rating (0 to 100 scale),[1]; [13],95
same,"Plant response rating, Lambsquarters",[1]; [14],100
same,"Plant response rating, Lambsquarters",[1]; [15],100
same,"Plant response rating, Nutsedge, Yellow",[2]; [12],10
same,"Nutsedge, Yellow plant response rating (0 to 100 scale)",[2]; [13],15
same,"Plant response rating, Nutsedge, Yellow",[2]; [14],45
same,"Plant response rating, Nutsedge, Yellow",[2]; [15],55
same,"Plant response rating, Cocklebur",[3]; [12],85
same,Cocklebur plant response rating (0 to 100 scale),[3]; [13],90
same,"Plant response rating, Cocklebur",[3]; [14],95
same,"Plant response rating, Cocklebur",[3]; [15],100
same,"Plant response rating, Crabgrass, Large",[4]; [12],70
same,"Crabgrass, Large plant response rating (0 to 100 scale)",[4]; [13],75
same,"Plant response rating, Crabgrass, Large",[4]; [14],80
same,"Plant response rating, Crabgrass, Large",[4]; [15],90
same,"Plant response rating, Foxtail, Green",[5]; [12],60
same,"Foxtail, Green plant response rating (0 to 100 scale)",[5]; [13],60
same,"Plant response rating, Foxtail, Green",[5]; [14],85
same,"Plant response rating, Foxtail, Green",[5]; [15],90
same,"Plant response rating, Wheat",[6]; [12],0
same,Wheat plant response rating (0 to 100 scale),[6]; [13],0
same,"Plant response rating, Wheat",[6]; [14],0
same,"Plant response rating, Wheat",[6]; [15],5
same,"Plant response rating, Bermudagrass",[7]; [12],80
same,Bermudagrass plant response rating (0 to 100 scale),[7]; [13],85
same,"Plant response rating, Bermudagrass",[7]; [14],85
same,"Plant response rating, Bermudagrass",[7]; [15],95
same,"Plant response rating, Morningglory",[8]; [12],65
same,Morningglory plant response rating (0 to 100 scale),[8]; [13],100
same,"Plant response rating, Morningglory",[8]; [14],100
same,"Plant response rating, Morningglory",[8]; [15],100
same,"Plant response rating, Oat, Wild",wild oat (Avena fatua); [12],0
same,"Oat, Wild plant response rating (0 to 100 scale)",wild oat (Avena fatua); [13],0
same,"Plant response rating, Oat, Wild",wild oat (Avena fatua); [14],5
same,"Plant response rating, Oat, Wild",wild oat (Avena fatua); [15],10
same,"Plant response rating, Goosegrass",[9]; [12],75
same,Goosegrass plant response rating (0 to 100 scale),[9]; [13],75
same,"Plant response rating, Goosegrass",[9]; [14],80
same,"Plant response rating, Goosegrass",[9]; [15],85
same,"Plant response rating, Flood, Sedge, Umbrella",[10],50
same,"Plant response rating, Sedge, Umbrella",[10]; [16],0
same,"Plant response rating, Sedge, Umbrella",[10]; [17],40
same,"Sedge, Umbrella plant response rating",[10]; [18],0
same,"Plant response rating, Flood, Barnyardgrass",[11],20
same,"Plant response rating, Barnyardgrass",[11]; [16],0
same,"Plant response rating, Barnyardgrass",[11]; [17],15
same,Barnyardgrass plant response rating,[11]; [18],0
Cc1c(Cl)cccc1-n1c(-c2ccccc2)ncc(C(=O)C2=C(O)CCCC2=O)c1=O [Compound 40],"Plant response rating, Lambsquarters",[1]; [19],100
same,"Plant response rating, Lambsquarters",[1]; [20],100
same,"Plant response rating, Lambsquarters",[1]; [14],100
same,Lambsquarters plant response rating,[1]; [21],100
same,"Plant response rating, Lambsquarters",[1]; [22],100
same,"Plant response rating, Lambsquarters",[1]; [23],100
same,Lambsquarters plant response rating,[1]; [24],100
same,"Plant response rating, Nutsedge, Yellow",[2]; [19],85
same,"Plant response rating, Nutsedge, Yellow",[2]; [20],35
same,"Plant response rating, Nutsedge, Yellow",[2]; [14],55
same,"Plant response rating, Nutsedge, Yellow",[2]; [22],10
same,"Nutsedge, Yellow plant response rating",[2]; [24],65
same,"Plant response rating, Cocklebur",[3]; [19],100
same,"Plant response rating, Cocklebur",[3]; [22],65
same,Cocklebur plant response rating,[3]; [24],85
same,"Plant response rating, Crabgrass, Large",[4]; [19],100
same,"Plant response rating, Crabgrass, Large",[4]; [25],85
same,"Plant response rating, Crabgrass, Large",[4]; [20],98
same,"Plant response rating, Crabgrass, Large",[4]; [14],100
same,"Crabgrass, Large plant response rating",[4]; [21],100
same,"Plant response rating, Crabgrass, Large",[4]; [22],70
same,"Plant response rating, Crabgrass, Large",[4]; [23],98
same,"Crabgrass, Large plant response rating",[4]; [24],100
same,"Plant response rating, Foxtail, Green",[5]; [19],100
same,"Plant response rating, Foxtail, Green",[5]; [25],90
same,"Plant response rating, Foxtail, Green",[5]; [20],95
same,"Plant response rating, Foxtail, Green",[5]; [14],95
same,"Foxtail, Green plant response rating",[5]; [21],95
same,"Plant response rating, Foxtail, Green",[5]; [22],0
same,"Plant response rating, Foxtail, Green",[5]; [23],85
same,"Foxtail, Green plant response rating",[5]; [24],85
same,"Plant response rating, Wheat",[6]; [20],20
same,"Plant response rating, Wheat",[6]; [14],30
same,"Plant response rating, Wheat",[6]; [22],0
same,Wheat plant response rating,[6]; [24],0
same,"Plant response rating, Bermudagrass",[7]; [19],100
same,"Plant response rating, Bermudagrass",[7]; [20],100
same,"Plant response rating, Bermudagrass",[7]; [14],100
same,Bermudagrass plant response rating,[7]; [21],100
same,"Plant response rating, Bermudagrass",[7]; [22],98
same,"Plant response rating, Bermudagrass",[7]; [23],100
same,Bermudagrass plant response rating,[7]; [24],100
same,"Plant response rating, Morningglory",[8]; [19],65
same,"Plant response rating, Morningglory",[8]; [14],75
same,"Plant response rating, Morningglory",[8]; [22],0
same,"Plant response rating, Morningglory",[8]; [23],0
same,Morningglory plant response rating,[8]; [24],0
same,"Plant response rating, Oat, Wild",wild oat (Avena fatua); [19],30
same,"Plant response rating, Oat, Wild",wild oat (Avena fatua); [20],85
same,"Plant response rating, Oat, Wild",wild oat (Avena fatua); [14],90
same,"Plant response rating, Oat, Wild",wild oat (Avena fatua); [22],0
same,"Oat, Wild plant response rating",wild oat (Avena fatua); [24],0
same,"Plant response rating, Goosegrass",[9]; [19],100
same,"Plant response rating, Goosegrass",[9]; [20],90
same,"Plant response rating, Goosegrass",[9]; [14],95
same,Goosegrass plant response rating,[9]; [21],98
same,"Plant response rating, Goosegrass",[9]; [22],80
same,Goosegrass plant response rating,[9]; [24],100
same,"Plant response rating, Flood, Sedge, Umbrella",[10],85
same,"Plant response rating, Sedge, Umbrella",[10]; [26],70
same,"Plant response rating, Flood, Barnyardgrass",[11],40
same,"Plant response rating, Barnyardgrass",[11]; [26],0
